{"source": "patent US11033599B2", "about": "“Pennisetum extract, process for manufacturing the same and uses thereof” (METAL INDUSTRIES RESEARCH & DEVELOPMENT CENTRE, priority 2017, dated 2021)", "tested_on": "ovariectomized SD female rats", "assay": "In vivo anti-osteoporosis assay, digital medical image analysis of femurs (DXA / Micro-CT)", "set-up": "species or system rat", "settings": "femur, OVX SD female rats, oral, 3 months, L 50 mg/kg, E2 estrogen 50 μg/kg, mean ± S.E.M., n=6", "method": "In this example, an in vivo assay for anti-osteoporosis activity of the Pennisetum extract was carried out on ovariectomized SD female rats in an animal feeding experiment mode, and the analysis of the femur bone mineral density and trabecular bone measurement was performed to confirm the pharmacological activity. The experimental method is as follows: (1) Test substance and control substances: The test group (L) uses the Pennisetum alcohol extract prepared in the foregoing Example 1 as the test substance. The blank control group (Control) and the ovariectomized group (OVX) were administered with ethanol as the control substance. The positive control group (E2) was administered with estrogen as the control substance. (2) Test animals: Test animals (including the test group, ovariectomized group and positive control group) were ovariectomized SD female rats, and the test on animals simulating the menopausal mode was started 2 weeks after oophorectomy. The blank control group was SD female rats without oophorectomy (only subjected to sham surgery). (3) Animal feeding management: The feeding environment was temperature 20° C. to 25° C.; humidity 65% to 80%; and lighting time 12 hours (monitoring environment every day). During the acclimation and test period, every 4 female rats were housed in an autoclaved plastic rearing cage (46 cm×25 cm×20 cm). Drinking water was treated with a reverse osmosis pure water machine, and then charged in a high temperature autoclaved plastic bottle to give the test animals for free drinking. (4) Acclimation: Ovariectomized SD female rats delivered by BioLASCO Co., Ltd. were acclimated for one week after entering the laboratory. During this period, clinical symptoms were observed every day, and healthy rats with normal weight gain were confirmed for the test. (5) Administration of test substance and control substances: After one week of acclimation, the experimental rats were orally administered with different doses of Pennisetum alcohol extract, ethanol or estrogen for 3 consecutive months, and then all the experimental rats were fasted one night before sacrifice to simulate the clinically applicable route of administration for the human body. During the 3 consecutive months of testing, according to the weight of the day before the administration, the test group was administered with a solution of the Pennisetum alcohol extract (10 mL/kg), which was prepared by dissolving 50 mg of Pennisetum alcohol extract in 10.0 mL of 10% ethanol; the blank control group and the ovariectomized group were administered with 10% ethanol (10.0 mL/kg); and the positive control group was administered with estrogen, which was dissolved in 10% ethanol (10.0 mL/kg). (6) The animal grouping was performed according to the body weight in an S-type order after the animals gained weight. The bone density (mass/volume) of the appropriate bone was measured by a dual energy X-ray absorptiometer (DXA) or micro-computerized tomography (Micro-CT, μ-CT; also used to measure the trabecular number). During the measurement, the DXA with two different energies was used to scan the inspection site, then the X-rays passing through the tested site was received by a scintillation detector, and then a computer analyzed the data to calculate the bone quality of the tested site. The records of the percentage of bone mass (bone volume/tissue volume), trabecular separation/spacing (Tb.Sp), trabecular number (Tb.N) and bone mineral density (BMD) in each group are shown in Table 5. It is represented by mean±standard error (S.E.M.) (n=6), and a, b, c, and d in the table represent statistical differences between the groups. The experimental data were statistically analyzed by one-way ANOVA. The statistical method of correlation index changes between the groups was statistically analyzed by Duncan test. […]", "key": {"[1]": {"settings": "listed as positive control group"}}, "data": [{"substance": "estrogen [E2]", "values": [{"measurement": "Bone Mineral Density", "value": 0.619, "unit": "mg/cm^2"}, {"measurement": "Percentage of Bone Mass (bone volume/tissue volume)", "value": 10.512, "unit": "%"}, {"measurement": "Trabecular Number (Tb.N)", "value": "0.908 ± 1/mm"}, {"measurement": "Trabecular Separation/Spacing (Tb.Sp)", "value": 1.103, "unit": "mm"}, {"measurement": "Percentage of Bone Mass (bone volume/tissue volume)", "setting": "[1]", "value": "10.512±1.071", "unit": "%"}, {"measurement": "Trabecular Number (Tb.N)", "setting": "[1]", "value": "0.908±0.085 1/mm"}]}]}
